Among the data in US20230329236A1, “HERBICIDAL PYRIMIDINE DERIVATIVES” (MoA Technology Limited, priority 2020, published 2023) are pest or weed control values, retold here.

Settings in all cases: 336 h, Table 3, post-emergence, 14±1 days post application
Assay [1] relates to Echinochloa crus-gaffi (ECHCG). Description: Post-emergence glasshouse test, visual injury, ECHCG. Format: in vivo, Echinochloa crus-galli. How it is done:
(§1) Seeds of a variety of test species are grown in a sandy loam soil mixture, Lolium multiflorum (LOLMU), Amaranthus retroflexus (AMARE), Echinochloa crus-gaffi (ECHCG), Veronica persica (VERPE), Glycine max (GLXMA), Oryza sativa (ORYSA), Zea mays (ZEAMX), spring wheat (TRZAS), Ipomoea hederacea (IPOHE), Ipomoea purpurea (PHBPU), Stellaria media (STEME), Solanum nigrum (SOLNI), Digitaria sanguinalis (DIGSA), Setaria italica (SETIT), Alopecurus myosuroides (ALOMY) and Avena fatua (AVEFA).
(§2) After sowing, at growth stage BBCH 12-14 (post-emergence), the plants are sprayed with an aqueous spray solution derived from the formulation of the technical active ingredient in acetone/water (50:50) solution containing 0.5% Tween 20 (polyoxyethlyene sorbitan monolaureate, CAS RN 9005-64-5). The test compounds are applied at the required concentration of active ingredient in g/ha. The test plants are then grown in a glasshouse under controlled environmental conditions and watered regularly as required. After 14±1 days post application (for post-emergence test), the test is evaluated by assessing the percentage damage caused to the plants in comparison with the untreated plots. The biological activities for post-emergence testing are shown below (Table 3 and Table 4) as a % visual injury.

Another assay deals with Veronica persica (VERPE). The assay can be described thus: Post-emergence glasshouse test, visual injury, VERPE. Format: in vivo. How it is done:
as §1, §2

Assay [2] relates to Lolium multiflorum (LOLMU). Description: Post-emergence glasshouse test, visual injury, LOLMU. Format: in vivo. The procedure:
as §1, §2

Assay [3] deals with Amaranthus retroflexus (AMARE). Description: Post-emergence glasshouse test, visual injury, AMARE. The format is in vivo. How it is done: as §1, §2

For `Cc1cc(-c2cnc(NCC3CCOCC3)nc2C(C)C)on1` [Compound 109], the pest or weed control (commonly how far the test organism was held down) at 125 g/ha in assay [1] came to 0%; in the assay with Veronica persica (VERPE) it was 70%; in assay [2] it was 0%; in assay [3], 40%.

Consider `CCc1nc(NCc2ccc(F)cc2)ncc1-c1cc(C)no1` [Compound 106], for which the pest or weed control at 125 g/ha in assay [1] amounted to 30%; with Veronica persica (VERPE) it was 95%; in assay [2], 0%; in assay [3] it was 90%.

With `CC(C)c1nc(NC2CCCC2)ncc1-c1cncs1` [Compound 124], the pest or weed control at 62 g/ha turned out to be 0% in assay [1], 0% in the assay on Veronica persica (VERPE), 0% in assay [2] and 10% in assay [3].

Regarding `Cc1cc(-c2cnc(NCCc3c(C)noc3C)nc2C(C)(C)C)on1` [Compound 68], the pest or weed control at 500 g/ha was found to be 0% in assay [1], 0% with Veronica persica (VERPE), 0% in assay [2] and 80% in assay [3].

For the compound `Cc1cc(-c2cnc(NCc3ccccc3F)nc2C(C)C)on1` [Compound 55], the pest or weed control at 500 g/ha was 70% in assay [1], 99% in the assay on Veronica persica (VERPE), 40% in assay [2] and 100% in assay [3].

Take `Cc1cc(-c2cnc(NC3CCCCC3)nc2C(F)(F)F)on1` [Compound 125]: the pest or weed control at 125 g/ha in assay [1] is 50%; in the assay with Veronica persica (VERPE), 0%; in assay [2], 20%; in assay [3] it was 70%.

As for `Cc1cc(-c2cnc(NC(C)C)nc2C(F)(F)F)on1` [Compound 115], the pest or weed control at 125 g/ha in assay [1] stood at 0%; with Veronica persica (VERPE), 60%; in assay [2], 0%; in assay [3], 20%.

In the case of `CCc1nc(NC2CCCC2)ncc1-c1cc(C)no1` [Compound 103], the pest or weed control at 125 g/ha in assay [1] is 30%; with Veronica persica (VERPE), 60%; in assay [2] it was 20%; in assay [3] it was 70%.

Regarding `Cc1cc(-c2cnc(NC3CCCC3)nc2C)on1` [Compound 92], the pest or weed control at 125 g/ha in assay [1] was found to be 50%; in the assay on Veronica persica (VERPE) it was 70%; in assay [2], 60%; in assay [3], 90%.

For the compound `COc1ccccc1CNc1ncc(-c2cc(C)no2)c(-c2ccc(C)o2)n1` [Compound 23], the pest or weed control at 500 g/ha is 50% in assay [1], 80% in the assay on Veronica persica (VERPE), 0% in assay [2] and 70% in assay [3].

With `Cc1cc(-c2cnc(NC3CC3)nc2C2CC2)on1` [Compound 84], the pest or weed control at 125 g/ha is 90% in assay [1], 60% with Veronica persica (VERPE), 50% in assay [2] and 60% in assay [3]. Also, the pest or weed control at 250 g/ha in assay [1] amounted to 100%; in the assay with Veronica persica (VERPE), 100%; in assay [2] it was 70%; in assay [3] it was 80%.

Take `CCN(C)c1ncc(-c2cc(C)no2)c(C(C)C)n1` [Compound 1, N-ethyl-N-methyl-5-(3-methyl-1,2-oxazol-5-yl)-4-(propan-2-yl)pyrimidin-2-amine]: the pest or weed control at 125 g/ha (in assay [1]; with Veronica persica (VERPE); in assay [2]; in assay [3]) was 0% each time. In addition, the pest or weed control at 500 g/ha came out at 50% in assay [1], 90% in the assay with Veronica persica (VERPE), 0% in assay [2] and 70% in assay [3].

Regarding `Cc1cc(-c2cnc(NCc3cccnc3)nc2C(F)(F)F)on1` [Compound 111], the pest or weed control at 125 g/ha came out at 0% in assay [1], 0% with Veronica persica (VERPE), 10% in assay [2] and 0% in assay [3].

On to `Cc1cc(-c2cnc(N3CCN(c4ncccn4)CC3)nc2C(C)C)on1` [Compound 70], for which the pest or weed control at 500 g/ha was 20% in assay [1], 0% with Veronica persica (VERPE), 0% in assay [2] and 80% in assay [3].

Turning to `Cc1cc(-c2cnc(N3CCCCC3)nc2C(C)C)on1` [Compound 56], the pest or weed control at 500 g/ha in assay [1] stood at 0%; in the assay with Veronica persica (VERPE), 0%; in assay [2], 10%; in assay [3], 70%.

For `Cc1cc(-c2cnc(NCc3ccncc3F)nc2C(C)C)on1` [Compound 95], the pest or weed control at 62 g/ha was 60% in assay [1], 60% with Veronica persica (VERPE), 30% in assay [2] and 30% in assay [3].

Consider `Cc1cc(-c2cnc(NCc3cccnc3)nc2C(C)(C)C)on1` [Compound 75], for which the pest or weed control at 500 g/ha in assay [1] turned out to be 40%; with Veronica persica (VERPE), 90%; in assay [2], 70%; in assay [3] it was 98%.

Regarding `COCCNc1ncc(-c2cc(C)no2)c(-c2ccncc2)n1` [Compound 66], the pest or weed control at 500 g/ha in assay [1] came to 20%; in the assay on Veronica persica (VERPE) it was 70%; in assay [2], 60%; in assay [3], 70%.

Regarding `Cc1cc(-c2cnc(NCC3CCC3)nc2C(C)C)on1` [Compound 87], the pest or weed control at 125 g/ha was determined as 80% in assay [1], 70% in the assay on Veronica persica (VERPE), 30% in assay [2] and 50% in assay [3].

Consider `Cc1cc(-c2cnc(NCc3cccnc3)nc2-c2ccc(C)o2)on1` [Compound 22], for which the pest or weed control at 500 g/ha in assay [1] worked out at 50%; in the assay with Veronica persica (VERPE), 60%; in assay [2], 0%; in assay [3], 60%.

Take `CC(=O)N1CCN(c2ncc(-c3cc(C)no3)c(C3CC3)n2)CC1` [Compound 50]: the pest or weed control at 500 g/ha in assay [1] was 50%; in the assay with Veronica persica (VERPE), 0%; in assay [2] it was 0%; in assay [3] it was 60%.

Regarding `Cc1cc(-c2cnc(NCc3ccccn3)nc2C2CC2)on1` [Compound 67], the pest or weed control at 500 g/ha in assay [1] turned out to be 40%; with Veronica persica (VERPE), 50%; in assay [2] it was 20%; in assay [3], 60%.

`Cc1cc(-c2cnc(NC3CCC3)nc2C(F)(F)F)on1` [Compound 110]: the pest or weed control at 125 g/ha in assay [1] turned out to be 0%; in the assay on Veronica persica (VERPE), 0%; in assay [2], 40%; in assay [3], 0%.

Consider `Cc1cc(-c2cnc(NC3CCOCC3)nc2C(C)C)on1` [Compound 6], for which the pest or weed control at 125 g/ha was found to be 90% in assay [1], 90% in the assay on Veronica persica (VERPE), 50% in assay [2] and 60% in assay [3]. Moreover, the pest or weed control at 250 g/ha in assay [1] worked out at 98%; with Veronica persica (VERPE), 100%; in assay [2] it was 20%; in assay [3], 100%.

In the case of `Cc1cc(-c2cnc(NC(C)(C)C)nc2C(C)C)on1` [Compound 5], the pest or weed control at 125 g/ha came out at 70% in assay [1], 100% with Veronica persica (VERPE), 60% in assay [2] and 100% in assay [3].

As for `COc1ccc(CNc2ncc(-c3cc(C)no3)c(C3CC3)n2)cc1OC` [Compound 52], the pest or weed control at 500 g/ha in assay [1] is 70%; in the assay on Veronica persica (VERPE), 70%; in assay [2] it was 40%; in assay [3], 80%.

Consider `Cc1cc(-c2cnc(NCCN3CCCC3=O)nc2C(C)C)on1` [Compound 42], for which the pest or weed control at 500 g/ha was determined as 50% in assay [1], 60% with Veronica persica (VERPE), 10% in assay [2] and 70% in assay [3].

With `Cc1cc(-c2cnc(N3CCOCC3)nc2-c2ccc(C)o2)on1` [Compound 72], the pest or weed control at 500 g/ha was determined as 30% in assay [1], 0% in the assay on Veronica persica (VERPE), 0% in assay [2] and 90% in assay [3].

`COCCNc1ncc(-c2cc(C)no2)c(-c2ccc(C)o2)n1` [Compound 65]: the pest or weed control at 500 g/ha in assay [1] is 30%; in the assay with Veronica persica (VERPE), 0%; in assay [2], 0%; in assay [3], 60%.

For `COCCCNc1ncc(-c2cc(C)no2)c(-c2ccc(C)o2)n1` [Compound 27], the pest or weed control at 500 g/ha in assay [1] stood at 20%; in the assay with Veronica persica (VERPE), 50%; in assay [2] it was 0%; in assay [3], 70%.
